Measured values: paper PMC11539071, “Optimization of Biocatalytic Rhododendrol Production from Biogenic Rhododendrol Glycosides” (ACS Sustainable Chemistry & Engineering, 2024)

Columns and labels:
[1] = system: T1, β-glucosidase from almonds; experiment: initial rates by HPLC of rhododendrol, Michaelis-Menten fit; type: biochemical, Prunus dulcis; settings: 0.1 M phosphate buffer pH 6, 40 °C; substrate from crude glycoside mixture containing apiosylrhododendrin
T1 construct: gene emulsin; native commercial enzyme preparation from almonds (Sigma-Aldrich)
Excerpt: initial rates by HPLC of rhododendrol, Michaelis-Menten fit on β-glucosidase from almonds

[2] = target: T1, β-glucosidase from almonds; experiment: initial rates by HPLC, product inhibition fit; type: biochemical, Prunus dulcis; settings: competitive; substrate betuloside at saturating level; 0.1 M phosphate buffer pH 6, 40 °C
Excerpt: initial rates by HPLC, product inhibition fit on β-glucosidase from almonds

Compound	Km [1] [mM]	Ki [2] [mM]
C[C@H](CCc1ccc(O)cc1)O[C@@H]1O[C@H](CO)[C@@H](O)[C@H](O)[C@H]1O (mixture of isomers) [betuloside]	26.7 ± 3.76	
CC(O)CCc1ccc(O)cc1 (racemic) [rhododendrol]		7.13 ± 2.2
OC[C@H]1OC(O)[C@H](O)[C@@H](O)[C@@H]1O (stereo partly drawn) [glucose]		65.5 ± 17.2
